The subject of series [1] is A549 cells (human lung carcinoma). Nature of the series: Cell inactivation, colony forming ability, A549. To be noted: FIG. 9; exposed for 24 hours. Format: cell-based. As to the method: (§1) Cell inactivation measured by means of loss of ability to form colonies was determined for several compounds. Cells used were of the established human cell lines of cancer cervix in situ origin, NHIK 3025, NHIK 3025/DDP, a cis-DDP-resistant variant of the same or A549 cells (human lung carcinoma). The cells were exposed to the test compound for 4 up till 24 hours. Test compounds were administered as micellar solution. Number of colonies were counted after about 12 days of incubation.
The cells were exposed for 24 hours.

The test system of series [2] is brain metastasis of a melanoma. Nature of the series: Clonogenic agarose assay, melanoma brain metastasis biopsy. Format: cell-based, human. The protocol: A biopsy was taken from the patient and placed immediately in a growth medium. […] Twenty-four hours before termination of the cultures (7 days) ^3H Thymidin was added. The activity of the test substance is thus quantified as cpm in a scintillation counter.

The test system of series [3] is Raji human B-lymphoma cells. Nature of the series: Raji leptomeningal carcinomatosis model in nude rats. Format: in vivo. The following applies: for mean day of death: 3 bolus injections on day 1, 2 and 4. As to the method:
The model used is a tumour model in nude rats for leptomeningal growth of tumours. 1×10^6 cells of the Bcell tumour line Raji were injected into the spinal fluid through cistema magna (c.m.). of 4-5 weeks old nude rats. […] Anaesthetised animals were treated intracerebrally with a 40 μl injection into cistema magna with 3 or 4 bolus injections. Treatment was started 1 day after cell inoculation.

The next series has as its system TLX/5 lymphoma. Briefly: Anti-tumour activity against murine TLX/5 lymphoma. It is filed as in vivo, CBA mice. To be noted: FIG. 16; for Maximum increase in lifespan: i.p. days 3-7, 6.25-50 mg/kg/day, median of 5; for doses at which active (increase in life span): i.p. treatment for 5 days. The protocol:
CBA mice weighing 20-25 g were inoculated subcutaneously inguinally with 1×10^5, TLX/5 tumour cells day 0. […] Doses were in the range 6.25-50 mg/kg/day. There were 5 mice per treatment per group and 10 tumour-bearing controls. Activity was assessed in terms of increase in life span (ILS) versus controls.

For series [4] the following is noted: rat, in vivo.
Protocol: (§2) Plasma concentrations of total radioactivity and of the metabolites were determined at different timepoints. Tissue concentrations of total radioactivity were determined from a range of tissues at different timepoints up to 120 hours following injection. Liver tissues were extracted and metabolite concentrations were determined up to 72 hours post injection.
The subject of series [5] is glioblastoma taken from a patient. Briefly: Clonogenic agarose assay, glioblastoma biopsy. It is filed as cell-based, human. To be noted: FIGS. 1 and 2. The protocol: A biopsy was taken from the patient and placed immediately in a growth medium. Tumour tissue was desegregated mechanically, and living cells were selected the chemotherapeutic test substance was added, BCNU (in water) and Ara-C and Ara-C esters (in micelles), and the cells were cultivated in a soft agarose medium. Twenty-four hours before termination of the cultures (7 days) ^3H Thymidin was added. The activity of the test substance is thus quantified as cpm in a scintillation counter.
The results here are obtained with a glioblastoma taken from a patient. The same response pattern is found in 8 other glioblastoma biopsies. […] The results are given as % of the untreated control. A count of 50% (CD50) is taken as promising regarding use in therapy of this actual cancer line. What is worth nothing here is the 10^1.5 higher concentration of Ara-C needed to obtain CD50 as compared with elaidyl esters.

The next series has as its system NHIK 3025/DDP cells. Nature of the series: Cell inactivation, colony forming ability, NHIK 3025/DDP. It is filed as cell-based, human. The following applies: FIG. 8; 4 h treatment. As to the method:
as §1
The results here are obtained with 4 h treatment of NHIK 3025/DDP cells.

Series [6] relates to Molt 4 human lymphoma cells. Briefly: Molt 4 leptomeningal carcinomatosis model in nude rats. Format: in vivo. The following applies: FIG. 12; treated 4x in cisterna magna. As to the method: The model used is a tumour model in nude rats for leptomeningal growth of tumours. 10^6 cells of the T-cell tumour line Molt 4 were injected into the spinal fluid through cistema magna (c.m.) of 4-5 weeks old nude rats. The animals develop neurological symptoms after 20-22 days if untreated. Anaesthetised animals were treated intracerebrally with a 40 μl injection into cistema magna with 4 bolus injections. Treatment was started 1 day after cell inoculation. Test compounds were Ara-C-5′-elaidyl ester (in micelles) and Ara-C. Ara-C was administered both at maximal tolerable dose (MTD) and at an equimotar dose to Ara-C-5′-elaidyl ester. Control animals (treated with NaCl) developed symptoms from the central nervous system after approximately 20 days.

The subject of series [7] is Raji human B-lymphoma cells. Nature of the series: Leukaemia model using Raji cells in SCID mice. Format: in vivo. As to the method:
SCID mice were injected intravenously with 1×10^6 Raji human B-lymphoma cells. […] Animals develop paralysis of the hind legs as a result of the tumour growth.

In a further series the test system is NFkappaB. Briefly: Activation of the cellular transcription factor NFkappaB (β-galactosidase reporter, SW480 cells). Format: cell-based, human. The following applies: FIG. 15; exposure 4 h. As to the method:
Human SW480 colon adenocarcinoma cells stably transfected with a CMV promotor/enhancer containing the gene for β-galactosidase were used. Activation of the transcription factor NFkappaB results in enhanced amount of the enzyme β-galactosidase in cytoplasma. The amount of β-galactosidase is quantified using optical density at 570 nm as parameter. The […] cells were incubated 2-3 days before exposure to the test compound for 4 h. The cells were washed and prepared, and optical density recorded for the different compounds.

In series [8] the test system is PV/2b/35 hemangiosarcoma cells. Briefly: Anti-tumour activity in SCID mice with hemangiosarcoma cells. Format: in vivo. The following applies: FIG. 17, 25 mg/kg/day. An excerpt: SCID mice were inoculated intraperitoneally with PV/2b/35 hemangiosarcoma cells. […] Controls were empty micelles, DMSO or PBS respectively. The animals were not treated during weekends. Survival was the endpoint of the study.

Series [9] concerns glioblastoma cell line U-118. Nature of the series: Glioblastoma U-118 subcutaneous tumour in nude mice, intratumoural injection. The protocol: A glioblastoma cell line U-118 (Uppsala) tissue culture was injected subcutaneously in nude mice. A small part (2×2 mm) of growing tumour was transferred to new mice. […] Depending on the actual tumour size, the animals received the same relative amount of test substance. The control was given saline water. The growth rate was recorded as relative tumour volume (RTV).

The nature of series [10]: Comparative pharmacokinetic, distribution, metabolism and excretion, i.v. to male rats. The following applies: for Excretion of radioactivity: 14C-Ara-C-elaidate 5 mg/kg or 14C-Ara-C 2.4 mg/kg.
Protocol: as §2

The structures appear in SMILES notation. Entries after “also recorded” stand apart in the source; their conditions may differ. Like-named read-outs stand apart in the source and are kept apart here.

`CCCCCCCCCCCCCCCCCC(=O)OCC1OC(n2ccc(N)nc2=O)C(O)C1O` (stereo not drawn) [Ara-C-5′-stearyl ester]: in [1], the “inactivation (colony forming ability) compared to Ara-C” value (from here on “inactivation … compared to Ara-C”) is recorded as “highest inactivation”.

Turning to `Nc1ccn([C@@H]2O[C@H](CO)[C@@H](O)[C@@H]2O)c(=O)n1` [Ara-C, 1-β-D-arabinofuranosylcytosine, reference compound], in series [2] (FIG. 3), the “difference (CD50 concentration) between Ara-C and the 3′- and 5′-elaidyl esters” value was approximately 10 times. The “mean day of death” value in [3] (FIG. 10) was found to be 13 days. Further, the effect on survival result in series [3] (FIG. 11, 4 bolus doses day 1-4, Ara-C at MTD and at dose equimolar to Ara-C-elaidate) is on record as “void of activity; also recorded: no effects”. Besides, in the series on TLX/5 lymphoma, the “Maximum increase in lifespan” value came to 32.7% and the “doses at which active (increase in life span)” value is reported as “only active at the dose 25 mg/kg”. Besides, the “time up to which Ara-C is detectable in plasma” value in [4] (male) came to 24 h. In [4] (male, 4 h), the “liver concentration of Ara-C” value was “non-detectable levels after 4 hours”. For the same compound, the “plasma levels of both Ara-C and Ara-U” value in [4] (male, 48 h) is “below the assay limit of detection at 48 h”. In addition, the “proportion of the dose in whole-blood” value in series [4] (male, iv, 0.08 h) is reported as 7.76%.

`O=NN(CCCl)C(=O)NCCCl` [BCNU, N,N-cis(2-chloroethyl)N-nitroso-urea]: in series [5], the “concentration needed to obtain CD50, times higher than with the Ara-C esters” value was “about 10 times” and the “concentration needed to obtain CD50 compared to Ara-C alone” value is reported as “reasonably comparable”. The “higher concentration to give CD50 compared to the Ara-C esters” value in series [2] (FIG. 4) is reported as “more than 1×10^2”.

Consider `CCCCCCCC/C=C/CCCCCCCC(=O)OC[C@H]1O[C@@H](n2ccc(N)nc2=O)[C@@H](O)[C@@H]1O` [Ara-C-elaidate, 5′-O-(Elaidoyl) 1-β-D-arabinofuranosylcytosine], for which, in the series with NHIK 3025/DDP cells, the “effect on colony forming ability compared to Ara-C” value is recorded as “Enhanced effect”. In series [1], the “inactivation … compared to Ara-C” value is listed as “enhanced effect”. The “increase of symptom free latency period as compared to Ara-C” value in [3] (FIG. 10, 3 bolus injections into cisterna magna on day 1, 2 and 4) was 135%. In [3] (FIG. 10), the “mean day of death” value was 30.5 days. Also, the “survival of one rat (considered cured)” value in series [3] (FIG. 10, 3 bolus injections, no tumours at necropsy day 76) was “more than 70 days”. The “rats still alive and symptom-free at day 70” value in series [3] (FIG. 11, 4 daily bolus doses day 1-4 into cisterna magna) is given as 3 out of 5. Besides, the “onset of death compared to Ara-C or control” value in series [6] was “delayed”. Also, the “fraction of the molar dose of Ara-C giving similar anti-cancer effects” value in series [7] (FIG. 13) is reported as 1/20. In addition, the mean survival result in [7] (FIG. 13, i.v. days 7, 9, 11, 13, 15, 20 mg/kg Ara-C-elaidate vs 200 mg/kg Ara-C) is “increased mean survival compared to control and Ara-C treated animals”. Moreover, the mean survival time result in series [7] (FIG. 14, i.p. once daily days 7-11, versus every other day) was “greatly prolonged”. In addition, the “β-galactosidase activity (optical density at 570 nm), NFkappaB activation” value with NFkappaB is reported as “substantial increase in β-galactosidase activity”. Moreover, in the series with TLX/5 lymphoma, the “Maximum increase in lifespan” value came out at 47.2%; the “doses at which active (increase in life span)” value is “active at the doses 12.5 mg/kg and 25 mg/kg”. Besides, the survival result in series [8] (5 days per week) is “greatly enhanced”. For the same compound, the “survival compared to control” value in series [8] (dissolved in DMSO) was “enhanced survival compared to control”. Further, the “survival compared to control” value in series [8] (prepared in micelles) is on record as “enhanced survival compared to control”. Besides, the CNS disturbance entry in [9] (FIG. 18, intratumoural injection) was “nor was there noted any sign of CNS disturbance”. For the same compound, the “tumour growth (relative tumour volume)” value in [9] (FIG. 18, intratumoural injection of 10 mg/ml micellar solution) is recorded as “complete stop in tumour growth”. Further, in [9] (mouse, in vivo), the toxic side effects result is on record as “no signs of toxic side effects”. For the same compound, in [4], the “initial whole blood and plasma concentration compared to Ara-C” value is “higher”; the “maximal concentrations compared to Ara-C” value is recorded as “lower”; the “maximal concentrations in most tissues compared to Ara-C” value was “notably higher and occurred at later timepoints”; the “plasma levels of both Ara-C and Ara-U” value was “can still be quantified at 72 h”. The “tissue concentration of total radioactivity compared to 14C-Ara-C” value in series [4] is “higher at all timepoints up to 120 hours”. Further, in series [4] (iv), the “concentration of active drug in RES tissues compared to Ara-C” value was “significantly higher”, the “elimination from tissues compared to 14C-Ara-C” value is recorded as “much slower” and the “tissue distribution compared to Ara-C” value was “significantly altered”. Also, the Excretion of radioactivity in [10] (0-6 hours, i.v. male rats) is on record as 59.1 ± 3.7 % of dose. Also, the Excretion of radioactivity in series [10] (6-24 hours, i.v. male rats) is 34.1 ± 2.5 % of dose. Besides, the Excretion of radioactivity in series [10] (24-48 hours, i.v. male rats) is reported as 2.7 ± 0.8 % of dose. The Excretion of radioactivity in series [10] (48-72 hours, i.v. male rats) was 0.5 ± 0.1 % of dose. The Excretion of radioactivity in [10] (72-96 hours, i.v. male rats) is on record as 0.2 ± 0.1 % of dose. The “detection of metabolite Ara-U in liver” value in [10] (FIG. 19) is reported as “no detection of Ara-U up to 24 hours”. Also, in series [10] (FIG. 19, after dosing the ester), the “time a therapeutic significant Ara-C level is sustained in liver” value is listed as “at least 72 h”. For the same compound, the “time up to which Ara-C is detectable in plasma” value in series [10] (FIG. 20) came out at 72 h. Further, in series [10] (FIG. 20, plasma), the “metabolism of Ara-C to Ara-U” value is “less extensive, and starts later”. Besides, in [10] (Table 2), the “rate of excretion of radioactivity in urine compared to 14C-Ara-C” value was “slower”. Further, in [10] (at 0.08 hours after i.v. administration), the “proportion of the dose in whole-blood” value came out at 64.7%. In addition, the “excretion via the renal system compared to Ara-C” value in [10] (i.v. male rats) is “much slower”. Further, the “conversion to Ara-U compared to Ara-C” value in [10] (table 1 and FIG. 20) is on record as “slower”.

`CCCCCCCCCCCC=CCCCCC(=O)OCC1OC(n2ccc(N)nc2=O)C(O)C1O` (stereo not drawn) [Ara-C-5′-petroseline ester]: the “inactivation … compared to Ara-C” value in series [1] was “enhanced effect”.

These data come from patent publication US6335322B1, “Therapeutic agents” (priority 1993, dated 2002).
